# Experimental data taken from patent publication US10688153B2, “Peptides and method for treatment of cardiac arrest” (THE BOARD OF TRUSTEES OF THE UNIVERSITY OF ILLINOIS, priority 2015, dated 2020).
# Ends that are not written are not given here.
# Experiments:
# mouse model of SCA [1] = assay: Blood sorbitol and taurine concentrations in mouse model of SCA; format: in vivo
# Text: Metabolism alteration and energy production are critical outcomes following SCA. Using a mouse model of SCA (Li, et al. (2015) Am. J. Physiol. Heart Circ. Physiol. 308:H1414-22), several metabolic compounds were identified as diagnostic markers for use in guiding the selection of treatment protocols (e.g., active cooling, therapeutic hypothermia, or modified PDZ binding domain peptide therapies).
# PTEN = PTEN (Homo sapiens, UniProt P60484); conditions: cited from earlier work
# Chain of PTEN (P60484 whole entry, species assumed): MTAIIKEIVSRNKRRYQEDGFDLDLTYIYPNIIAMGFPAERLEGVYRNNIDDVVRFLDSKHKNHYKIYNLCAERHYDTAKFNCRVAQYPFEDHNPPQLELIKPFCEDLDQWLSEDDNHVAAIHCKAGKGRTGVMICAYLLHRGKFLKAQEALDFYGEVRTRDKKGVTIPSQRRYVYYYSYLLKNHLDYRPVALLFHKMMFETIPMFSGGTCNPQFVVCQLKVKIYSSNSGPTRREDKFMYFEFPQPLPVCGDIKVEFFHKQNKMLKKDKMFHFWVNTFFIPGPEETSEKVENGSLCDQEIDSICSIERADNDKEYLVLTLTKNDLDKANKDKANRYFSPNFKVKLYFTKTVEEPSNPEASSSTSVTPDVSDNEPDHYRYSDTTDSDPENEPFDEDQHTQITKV
# cell death = conditions: Zhu et al. 2014, cited from earlier work
# mouse model of SCA [2] = conditions: Li et al. 2015; cited from earlier work
# C57BL6 mice [3] = assay: Potassium-induced SCA protocol, nicotinamide during CPR plus TAT-PTEN9c after ROSC (Example 3); format: in vivo, mouse; conditions: about 12 minute down time
# Protocol: The benefit of co-administration of nicotinamide (NAM) with TAT-PTEN9c was evaluated. C57BL6 mice were subjected to an established potassium-induced 8-minute SCA protocol. Nicotinamide (Vitamin B3) was administered during CPR and TAT-PTEN9c was administered after ROSC with about a 12 minute down time for each group.
# [4] = tested on: Akt phosphorylation in mouse cardiomyocytes; assay: Western blot of Akt phosphorylation in mouse cardiomyocytes exposed to H2O2 or IGF-1; format: cell-based
# Text: (§1) Mouse cardiomyocytes were isolated from 1-3 day old mouse pups according to known methods (Zhu, et al. (2014) PLoS One 9:e95622). Western blot analysis was used to determine the efficacy of a representative peptide of the invention (TAT-PTEN9c) for enhancing Akt phosphorylation in mouse cardiomyocytes exposed to oxidant (H2O2) or IGF-1. C57BL6 mice were subjected to an established potassium-induced 8-minute SCA protocol (Li, et al. (2015) Am. J. Physiol. Heart Circ. Physiol. 308:H1414-22). Mean arterial blood pressure (MAP), end-tidal CO2 (EtCO2), body temperature and electrocardiogram (ECG) were recorded until […] after successful cardiopulmonary resuscitation (CPR). TAT-PTEN9c (7.5 mg/kg) or saline was given intravenously (IV) immediately after ROSC. A mouse survival curve was generated by Kaplan-Meyer analysis. IV administration of TAT-GFP was used to measure the kinetics of heart and brain tissue TAT protein delivery.
# C57BL6 mice [5] = assay: Potassium-induced 8-minute SCA protocol, peptide IV immediately after ROSC (Example 1); format: in vivo, mouse
# Text: as §1
# C57BL6 mice [6] = assay: Potassium-induced 8-minute SCA protocol, timing of administration during CPR or after ROSC (Example 2); format: in vivo, mouse; conditions: for MAP: 7.5 mg/kg IV administered after ROSC
# Protocol: To determine timing of modified peptide administration, TAT-PTEN9c was administrated during CPR or after ROSC. C57BL6 mice were subjected to an established potassium-induced 8-minute SCA protocol (Li, et al. (2015) Am. J. Physiol. Heart Circ. Physiol. 308:H1414-22). Mean arterial blood pressure (MAP) was recorded until 4 hours after successful CPR. TAT-PTEN9c (7.5 mg/kg) or saline (NS) was given intravenously (IV) during CPR and immediately after ROSC.
# [7] = 240 minutes, 7.5 mg/kg IV immediately after ROSC
compound,measurement,setting,value
O=C(O)c1ncccc1O.O=C(O)c1ncccc1O.[O]=[V][O-] [VO-OHpic],blood sorbitol concentration,mouse model of SCA [1],reduced
same,blood taurine concentration,mouse model of SCA [1],reduced
same,inhibition of PTEN,PTEN,potent inhibition
same,reduction in cell death,cell death; I/R injury,almost four-fold reduction
same,phosphorylated Akt,cell death,significant increase
same,recovery and survival,mouse model of SCA [2],improved recovery and survival
NC(=O)c1cccnc1 [nicotinamide],survival time of all mice,C57BL6 mice [3],less than 1 hours
"YGRKKRRQRRRDQHSQITKV (not fully specified (C-terminus)) [TAT-PTEN9c, 20-residue peptide: Tat transduction domain plus C-terminal 9 residues of mouse PTEN]",time to Akt activation after administration,[4]; FIG. 1C,≤ 10 min
same,Akt activation in response to H2O2,"[4]; H2O2, concentration-dependent, FIG. 1A",enhances Akt activation
same,Akt activation in response to IGF-1,"[4]; IGF-1, concentration-dependent, FIG. 1B",enhances Akt activation
same,brain tissue sorbitol content,"C57BL6 mice [5]; 15 (R15) and 30 (R30) minutes after ROSC, vs saline control (NS), FIG. 3",significantly decreased
same,EtCO2,C57BL6 mice [5]; [7],36.2 ± 6.7 mmHg
same,Heart Rate,C57BL6 mice [5]; [7],502.0 ± 62.2 bpm
same,MAP,C57BL6 mice [5]; [7],52.7 ± 9.3 mmHg
same,Survival (%),C57BL6 mice [5]; [7],66.7%
same,survival of mice after cardiac arrest,"C57BL6 mice [5]; administered immediately after ROSC, vs saline control, FIG. 4",significantly improves survival
same,resuscitation rate,C57BL6 mice [6]; 7.5 mg/kg IV administered during CPR,no improvement
same,MAP,C57BL6 mice [6]; 30 minutes after ROSC,65.2±1.1 mmHg
same,MAP,"C57BL6 mice [6]; 4 hours after ROSC, p<0.05 vs NS",49.9±0.7 mmHg
